Results reported in patent publication US20100048671A1, “INHIBITION OF THE 44 KILODALTON ISOFORM OF PIM-1 KINASE RESTORES APOPTOSIS INDUCED BY CHEMOTHERAPEUTIC DRUGS IN CANCER CELLS” (priority 2005, published 2010).
Where two headings read alike, the source gives them in different places.

What was measured:
Type in all cases: cell-based, human
Pim-1L = assay: Threonine phosphorylation of endogenous BCRP after Pim-1 siRNA (immunoprecipitation with anti-BCRP, immunoblotting with anti-phosphothreonine); conditions: MCF7/MX cells; lenti-virus encoded siRNA vs vector control
Description: MCF7-MX cell lysates infected with lenti-virus encoding Vector control and Pim-1 SiRNA(SiPim-1) were subjected to immunoprecipitation with monoclonal BCRP antibody, followed by immunoblotting with anti-phosphothreonine (αpThr).
(§1) The phosphorylation of BCRP is therapeutically significant because it […] BCRP from causing resistance to chemotherapeutic agents. […] Downregulating Pim-1L expression by a specific siRNA also sensitized the prostate cancer cell line CWR-R1 to apoptosis induced by the chemotherapeutic agents mitoxantrone, topotecan and docetaxel (FIG. 12). The siRNA target sequence for inhibiting Pim-1L expression used to inhibit Pim-1L expression is sequence is: 5′ GCAGGACAGUGCUUGAUAC 3′ identified as SEQ ID NO. 3, as is described in a previous study (29, the entire contents of which is hereby incorporated by reference as if fully set forth herein). This siRNA is targeted at nucleotides 1540-1558 of SEQ ID NO. 1.
The transfected cells were lysed in the buffer (20 mM TrisHCl pH 7.4, 150 mM NaCl, 1 mM EDTA, 1 mM EGTA, 1% Triton X-100, 1 mM Na3VO4, 1 mg/ml aprotinin, 1 mg/ml leupterin and 1 mM PMSF). Insoluble material was removed by centrifugation, and antibodies were added to lysates and incubated for 1-3 hour at 4° C. […]

MCF7-MX cells = assay: Drug sensitivity (WST-1) of MCF7-MX cells infected with lenti-virus encoding Pim-1 SiRNA; conditions: Flavopiridol (15 μM) or DTX (50 μM), 2 days
Protocol: FIG. 11A: MCF7-MX cells infected with lenti-virus encoding vector control and Pim-1 SiRNA were treated with Flavopiridol (15 μM) or DTX (50 μM) as indicated for 2 days. Cell viability was determined using the WST-1 assay. P<0.05 FIG. 11B: expression levels of Pim-1, BCRP and actin analyzed by immunoblotting with the respective antibodies.
as §1

CWR-R1 cells = assay: Drug sensitivity (WST-1) of CWR-R1 cells infected with lenti-virus encoding Pim-1 SiRNA; conditions: mitoxantrone (2 μM), topotecan (5 μM) or docetaxel (50 nM), 2 days
Protocol: FIG. 12A: CWR-R1 cells infected with lenti-virus encoding vector control and Pim-1 SiRNA were treated with MX (2 μM), TPT (5 μM) or DTX (50 nM), respectively for 2 days. Cell viability was determined using the WST-1 assay. FIG. 12B: immunoprecipitation performed by using anti-BCRP.
as §1

[1] = test system: LNCaP cells over-expressing BCRP; assay: Drug sensitivity (WST-1) of LNCaP cells over-expressing BCRP infected with lenti-virus encoding Pim-1 SiRNA; conditions: MX (0.5 μM) or TPT (0.1 μM), 2 days
Protocol: FIG. 13A: LNCaP cells infected with lenti-virus encoding vector control, BCRP, Pim-1SiRNA or both were treated with the indicated drugs MX (0.5 μM) or TPT (0.1 μM) for 2 days. Cell viability was determined using the WST-1 assay FIG. 13B: Immunoprecipitation was performed by using anti-BCRP.

LNCaP cells [2] = assay: Drug sensitivity assay (WST-1 cell viability) of lenti-virus infected LNCaP cells treated with doxorubicin; conditions: for viability at 0.1 µg/mL: Homo sapiens, LNCaP, read-out: cells remained viable
Protocol: FIG. 5A: LNCaP cells infected with lenti-virus encoding Flag-Pim-1S, Pim-1L, Pim-1LKM (kinase-deficient mutant) or vector control were treated with doxorubicin (0.1 ug/ml) for the times as indicated. Cell viability was determined by the WST-1 assay. The data were expressed as the mean of triplicates of the doxorubicin-treated samples relative to the untreated controls. * p<0.01 compared with the vector control. The expression of the Pim-1 proteins encoded by the lenti-viruses was determined by immunoblotting with anti-Flag antibody. […] The response to doxorubicin was determined at 20 hour as above. * p<0.01 compared with the vector control; ** p<0.01 compared with Pim-1L alone. Expression of Flag-Pim-1L and T7-EtkKQ was monitored by immunoblotting with anti-Flag and anti-T7 antibody, respectively. FIG. 5C: LNCaP cells infected with the lenti-viruses encoding the indicated proteins as in 5A were treated with 10-100 nM mitoxantrone for 48 h; cell viability was determined as in 5A. * p<0.01 compared with the vector control. FIG. 5D: Etk mediates Pim-1L-induced resistance to mitoxantrone. LNCaP cell were infected with the lenti-viruses and the mitoxatrone response was determined. * p<0.01 compared with the vector control; ** p<0.01 compared with Pim-1L alone. […] LNCaP cells were transfected with the plasmids as indicated. The association of Etk with p53 was determined by immunoprecipitation with anti-p53 and followed by immunoblotting with anti-T7 antibody. The expression of p53, Etk or Pim-1 in these cells was monitored by immunoblotting with anti-p53, anti-T7 and anti-Flag antibody, respectively.
An increase of Etk activity confers drug resistance to apoptosis caused by chemotherapeutic agents in LNCaP cells (20), including doxorubicin and cisplatin. By contrast, P53 binding to Etk decreases Etk activity permits apoptosis. However, the mechanism by which Etk is activated was not known. […] As is shown in FIG. 5A, treatment of LNCaP cells with doxorubicin induced rapid apoptosis as was expected. […] Over-expression of Pim-1S conferred some initial protection against drug-induced apoptosis with about 80% cell survival at 20 h. However, such protection was not sustained until 40 hours. […] In this experiment, LNCaP cells were infected with Lenti-virus encoding Flag-Pim-1 S, Pim-1L, Pim-1LKM (kinase-deficient mutant) or vector control for 24h.
LNCaP cells were infected with the lentiviruses encoding the proteins as indicated by using the protocol described previously (19). At 48 hour post-infection, the cells were seeded into the 96 well plates (3×10^4/well). Doxorubicin or mitoxantrone was added in the medium after 24 h. The effects of doxorubicin on the viability of cells were measured after 20-48 hour by the WST-1 assay (Roche Molecular Biochemicals). The viability rates are expressed as means±SD of the triplicate for each experiment. An aliquot of cells was lysed and followed by immunoblotting with anti-T7 or anti-Flag to monitor the transfection efficiency.

LNCaP cells [3] = assay: Induction of Pim-1 expression by IL-6 (immunoblotting with monoclonal anti-Pim-1 antibody); conditions: serum starved LNCaP cells; 25 ngml IL-6, 24 hour, 37 degrees
Description: FIG. 1A: Induction of Pim-1 expression by IL-6 in LNCaP cells. FIG. 1B: The effects of neutralizing antibody against IL-6 on the protein level of Pim-1 in PC3 cells. FIG. 1C: Expression of the two isoforms of Pim-1 by the EST clones in transfected LNCaP, 22Rv1 and PC3 cells FIG. 1D: The N-terminal unique sequence in human 44 kD Pim-1. Part of the sequence of the 5′ end of Pim-1 cDNA in the EST clones is shown. The putative alternative translation initiation site CUG and the start codon AUG are in boldface. FIG. 1E: Alignment of the unique N-terminal sequence in the 44 kD Pim-1 from human and mouse origins. Proline-rich motifs are underlined and bold. The translation initiation sites of the two isoforms are shown by arrows.
Induction of Pim-1 expression by IL-6 was assessed in serum starved LNCaP cells that were treated with 25 ngml IL-6 for 24 hour at 37 degrees. The level of Pim-1 protein was examined by immunoblotting with a monoclonal anti-Pim-1 antibody (Top). The same blot was then probed with anti-actin to monitor the sample loading (Bottom). […] One embodiment of the present invention is directed to the isolated human 44 kD isoform identified by SEQ ID NO. 4 or a functional equivalent or variant thereof and its use in screening assays. We are the first to isolate and describe the gene for the 44 kD isoforms identified in SEQ ID NO. […]

Question: What does the source list for “5′ GCAGGACAGUGCUUGAUAC 3′ (lentivirus encoded, further chemistry not given here; listed as Homo sapiens) [siRNA, 1, lenti-virus encoded]”?
Answer: phosphorylation of BCRP (Pim-1L): significantly reduced; BCRP-mediated drug resistance (MCF7-MX cells): inhibited BCRP-mediated drug resistance; sensitivity to apoptosis induced by chemotherapeutic agents (CWR-R1 cells): sensitized; BCRP-mediated resistance to mitoxantrone and topotecan [1]: able to reduce or compromise BCRP-mediated resistance

Question: Which results are given for COc1cccc2c1C(=O)c1c(O)c3c(c(O)c1C2=O)C[C@@](O)(C(=O)CO)C[C@@H]3O[C@H]1C[C@H](N)[C@H](O)[C@H](C)O1 [doxorubicin]?
Answer: viability at 0.1 µg/mL (LNCaP cells [2]; 20 h): ~50%; viability at 0.1 µg/mL (LNCaP cells [2]; 40 h): > 70%; apoptotic cells detected (LNCaP cells [2]; LNCaP cells expressing Pim-1L, doxorubicin 0.1 ug/ml, 20 hours post-treatment): Virtually no apoptotic cells were detected; cells that survived (LNCaP cells [2]; LNCaP cells expressing the empty vector or kinase-inactive Pim-1LKM, doxorubicin 0.1 ug/ml, 40 hour treatment): 20%; cell survival (LNCaP cells [2]; LNCaP cells over-expressing Pim-1S, doxorubicin 0.1 ug/ml, 20 h): about 80%

Question: How did the “expression of the 44 kD Pim-1 protein” value (LNCaP cells [3]) turn out when “IL-6: interleukin 6, cytokine used to induce Pim-1 expression” was run?
Answer: induced
